Results reported in patent US20110136876A1, “Altering Pharmacokinetics of Pirfenidone Therapy” (INTERMUNE, INC., priority 2007, published 2011).
Like-named read-outs stand apart in the source and are kept apart here.

Legend:
[1] = Single dose study: adverse events with food, antacid, or food plus antacid; assay type: in vivo, human; details: for dizziness incidence / nausea incidence / somnolence incidence / headache incidence: of 16 subjects
Description: (§1) A study was designed to evaluate the effect of food, antacids, and food taken with antacids on adverse events associated with pirfenidone use. The trial was conducted as a randomized, open-label, four-treatment crossover, with a single dose for each treatment period and a 2-day washout period between study treatments. 16 healthy adults between the ages of 50 and 79 years having body mass indices between 18 and 30 (inclusive) were enrolled and completed all 4 treatment arms. The treatment arms were as follows:
(§2) A) pirfenidone alone (Fasted);
(§3) B) pirfenidone within 1 minute following a dose of antacid (20 mL Mylanta® Maximum Strength Liquid) (Fasted+Antacid);
(§4) C) pirfenidone 5 minutes after completing a standard meal (Fed); and
(§5) D) pirfenidone 5 minutes after completing a standard meal, then within 1 minute, followed by a dose of antacid (Fed+Antacid).
(§6) All subjects were admitted to the clinic for clinical evaluation the day prior to receiving the first dose of the study medication and remained confined for 13 days. Following an overnight fast of at least 10 hours (h), subjects were randomized to one of the above-described 4 treatment sequences. Each dose of pirfenidone (3×267 mg capsules) was administered orally with 240 mL room temperature water on days 1, 4, 7, and 10 in the morning, following an overnight fast of at least 10 hours. The washout period between treatments was 2 days. A standard meal consisted of 2 fried eggs, 2 strips of bacon, 2 slices of toast, 2 pats of butter, hash brown potatoes (4 oz), and whole milk (8 oz).
On each study day, adverse events were reviewed with the patients as follows. Before administration of the first dose of the study drug, study site personnel noted the occurrence and nature of each subject's medical condition(s). During the trial, site personnel again noted any change in the condition(s) or occurrence and nature of any adverse events. The severity of adverse events were graded based on the Modified Common Toxicity Criteria and the relationship of the study drug to the adverse event determined.

[2] = Single dose study: pharmacokinetics of pirfenidone, fasted versus fed; assay type: in vivo; details: human, plasma, 801 mg; for half-life: oral, read-out: mean absorption half life (t1/2, abs) (converted)
Description: as §1, §2, §3, §4, §5, §6
Of 7 subjects who reported nausea, 5 of 16 (31%) were fasted compared to only 2 of 16 (13%) fed subjects. Of 5 subjects reporting dizziness, 4 of 16 (25%) were fasted, while only 1 of 16 (6%) was fed. Of 3 subjects reporting somnolence, 2 of 16 (13%) were fasted and 1 of 16 (6%) were fed. Of 3 subjects reporting headaches, 2 of 16 (13%) were fasted and 1 of 16 (6%) were fed.

[3] = Multiple dose study: adverse events on multiple ascending daily doses taken with food; assay type: in vivo, human
Description: A second study was designed to examine incidences of adverse events on multiple ascending daily doses of pirfenidone. The trial was conducted as an open-label, escalating-dose study with no washout period between dose escalations. 25 healthy adults between the ages of 45 and 79 (inclusive) having body mass indices between 18 and 30 (inclusive) were enrolled. 22 adults completed the treatment. Each volunteer received from 801 mg/day to 4005 mg/day of pirfenidone divided into three equal doses as follows:
Days 1-2: 1 capsule three times a day (TID) (801 mg total daily dose (TDD))
Day 3: 1 capsule in the morning (0800) (267 mg TDD)
Days 4-5: 2 capsules TID (1602 mg TDD)
Day 6: 2 capsules in the morning (534 mg TDD)
Days 7-8: 3 capsules TID (2403 mg TDD)
Day 9: 3 capsules in the morning (801 mg TDD)
Day 12: 4 capsules in the morning (1068 mg TDD)
Day 15: 5 capsules in the morning (1335 mg TDD)
All subjects were admitted to the clinic for clinical evaluation the day before the first dose of study medication and remained confined for 17 days. Each subject received all dose levels of the study drug unless adverse events or the clinical judgment of the trial physician precluded the continuation of treatment. All doses were taken with 240 mL room temperature water and with food (excluding grapefruit juice). TID doses times were ˜0800, ˜1200, and ˜1800.

[4] = 801 to 4005 mg/day TID with food, of 25 subjects

## Cc1ccc(=O)n(-c2ccccc2)c1 [pirfenidone, 5-methyl-1-phenyl-2-(1H)-pyridone]
[1]; all treatment arms
  dizziness incidence: 38%
  nausea incidence: 44%
  somnolence incidence: 25%
[1]; fasted
  dizziness incidence: 25%
  headache incidence: 13%
  nausea incidence: 31%
  somnolence incidence: 13%
[1]; fed
  dizziness incidence: 6%
  headache incidence: 6%
  nausea incidence: 13%
  somnolence incidence: 6%
[1]; in total, all treatment arms, 16 subjects
  subjects with at least 1 adverse event: 75%
[1]; of the 12 subjects with at least 1 adverse event
  subjects with adverse events whose adverse events were mild: 75%
[1]; with food (Fed), 16 subjects
  subjects who experienced an adverse event: 31.3%
[1]; with food and antacid (Fed+Antacid), 16 subjects
  subjects who experienced an adverse event: 25%
[1]; within 1 minute following a dose of antacid (Fasted+Antacid), 16 subjects
  subjects who experienced an adverse event: 56.3%
[1]; without food (Fasted), 16 subjects
  subjects who experienced an adverse event: 56.3%
[2]; with food (fed)
  half-life: ~1.78 h
[2]; without food (fasted)
  half-life: ~0.572 h
[2]; po, fasted (without food), single oral dose 3x267 mg capsules, healthy adults
  Cmax: 15700 ng/mL
[2]; po, fasted, single oral dose 3x267 mg capsules
  AUC: 72700 ng·h/mL
[2]; po, fed, single oral dose 3x267 mg capsules
  AUC: 64600 ng·h/mL
[3]; 801 to 4005 mg/day TID with food, 25 subjects
  subjects with at least one adverse event: 92%
[3]; [4]
  headache incidence: 28%
  nausea incidence: 36%
  somnolence incidence: 32%
[3]; of the 23 subjects with at least one adverse event
  subjects with adverse events whose adverse events were mild: 96%
